In ChEMBL document CHEMBL1132803, “L-Selenohomocysteine: one-step synthesis from L-selenomethionine and kinetic analysis as substrate for methionine synthases” (Bioorg Med Chem Lett, 2000) one finds Specific activity and Km data, which are given here for one compound.

The nature of data set [1]: Specific activity of compound was determined. Type of data set: ADME.
The nature of data set [2]: Second order rate constant was determined. In kind it is ADME.

By Km is commonly meant the substrate concentration at which the rate is half of its maximum. `NC(CCS)C(=O)O` (configuration not stated) [HOMOCYSTEINE]: the Specific activity in data set [1] came to 0.23 µM/min/mg. In addition, in data set [2], the Km was 69 µM.
